Assay results taken from patent US8546377B2 (AbbVie Inc., priority 2009, dated 2013).
Like-named read-outs stand apart in the source and are kept apart here.

Columns and labels:
[1] = target: T1, 5HT2C receptors (Homo sapiens, UniProt P28335); experiment: Human 5-HT2C functional assay in CHO-K1 cells (calcium flux, FLIPR); assay type: cell-based; design: expressed in transfected cells; host or cells: CHO-K1 cells
T1 sequence (P28335 33-458): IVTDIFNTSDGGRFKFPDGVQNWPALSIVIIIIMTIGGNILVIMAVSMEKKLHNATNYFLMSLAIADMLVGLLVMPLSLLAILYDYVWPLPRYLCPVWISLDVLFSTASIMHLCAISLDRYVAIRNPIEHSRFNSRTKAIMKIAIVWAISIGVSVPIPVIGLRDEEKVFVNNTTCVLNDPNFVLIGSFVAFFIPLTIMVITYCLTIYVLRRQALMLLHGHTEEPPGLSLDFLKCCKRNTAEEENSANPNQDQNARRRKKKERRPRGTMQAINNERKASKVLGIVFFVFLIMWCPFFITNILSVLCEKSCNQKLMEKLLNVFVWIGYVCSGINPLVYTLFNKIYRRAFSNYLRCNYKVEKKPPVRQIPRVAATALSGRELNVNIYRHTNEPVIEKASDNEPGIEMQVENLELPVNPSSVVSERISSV
Protocol: (§1) (iii) Human 5-HT2C and 5-HT2B Functional Assay in CHO-K1 Cells
(§2) CHO-K1 cells over-expressing 5HT2C or 5HT2B receptors were grown in 1272 cm^2 flasks to 70-80% confluency in UltraCHO media supplemented with 1% dialyzed fetal bovine serum (FBS), 250 μg/mL zeocin, 100 U/mL penicillin/streptomycin, and 400 μg/mL geneticin. The cells were dissociated from the flasks using 0.05% trypsin, resuspended in freezing media and stored in liquid nitrogen until use. Calcium flux experiments were done using frozen cells. The cells were diluted in media containing 1% dialyzed FBS and 100 U/mL penicillin/streptomycin and plated into 384-well poly-D-Lysine coated plates (15,000 cells/well). Then the plates were incubated overnight in a cell incubator at 37° C., 5% CO2. On the next day, the growth media was replaced with media without FBS and further incubated overnight. On day three, the changes in intracellular Ca^2+ were determined using calcium sensitive fluorescent dye, Ca4 (MDS Analytical Technologies, Sunnyvale, Calif.) by loading 15 μL of diluted dye with 2.5 mM probenecid into the cells containing media and incubated at room temperature for 60 minutes in dark.
(§3) Fluorescence measurements were read at 25° C. at an excitation wavelength of 480 nm and an emission wavelength of 530 nm in FLIPR (MDS). Baseline fluorescence was measured for the first 10 seconds and then 15 μL of 4× concentrations of serotonin/test compounds was added to the cell plate. The fluorescence intensity was captured every second for the first 1 minute followed by every 5 seconds for an additional 2 minutes. The increase in fluorescent response was determined and was normalized to the response of serotonin. The concentration response of compounds was done from a starting concentration of 10 μM, 1:10 dilution across 6 wells with a final dimethyl sulfoxide concentration of 0.2% and was fitted using a 4-parameter logistic equation. The concentration at which a compound exerts half its maximal effect was named as ‘effective concentration 50’ or ‘EC50’.
(§4) Emax is the maximum functional response or efficacy expressed as a percentage relative to the effect of serotonin.

[2] = target: T2, 5HT2B receptors (Homo sapiens, UniProt P41595); experiment: Human 5-HT2B functional assay in CHO-K1 cells (calcium flux, FLIPR); assay type: cell-based
T2 construct: expressed in transfected cells; host or cells: CHO-K1 cells
T2 sequence (P41595 whole entry): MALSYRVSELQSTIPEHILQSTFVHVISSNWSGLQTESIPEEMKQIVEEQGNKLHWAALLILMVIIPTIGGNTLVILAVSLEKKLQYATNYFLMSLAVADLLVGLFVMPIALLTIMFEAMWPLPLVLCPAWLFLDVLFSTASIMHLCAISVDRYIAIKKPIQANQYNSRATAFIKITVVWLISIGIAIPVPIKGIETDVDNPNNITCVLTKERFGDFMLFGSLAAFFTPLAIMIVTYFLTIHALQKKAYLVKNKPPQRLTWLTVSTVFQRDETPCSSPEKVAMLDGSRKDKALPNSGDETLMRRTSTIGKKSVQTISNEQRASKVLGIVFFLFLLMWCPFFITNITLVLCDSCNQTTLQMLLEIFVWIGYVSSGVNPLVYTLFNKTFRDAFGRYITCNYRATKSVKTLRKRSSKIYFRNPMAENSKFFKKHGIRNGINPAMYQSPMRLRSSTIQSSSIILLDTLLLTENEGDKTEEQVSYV
Protocol: as §1, §2, §3, §4

[3] = CHO-K1 cells over-expressing 5HT2C, calcium flux, read-out: EC50 (μM), 5-HT2c Agonist Activity
[4] = CHO-K1 cells, percentage relative to the effect of serotonin, read-out: Emax (%), 5-HT2c Agonist Activity
[5] = CHO-K1 cells over-expressing 5HT2B, calcium flux, read-out: EC50 (μM), 5-HT2B Agonist Activity
[6] = CHO-K1 cells, percentage relative to the effect of serotonin, read-out: Emax (%), 5-HT2B Agonist Activity
[7] = CHO-K1, read-out: Emax (%), 5-HT2c Agonist Activity, CHO-K1 cells, percentage relative to the effect of serotonin
[8] = CHO-K1, read-out: Emax (%), 5-HT2B Agonist Activity

SMILES: O=C1CC2CNCCN2c2cc(COc3ccccc3F)ccc2N1 (centres unmarked) [Example 113, 10-[(2-fluorophenoxy)methyl]-1,2,3,4,4a,5-hexahydropyrazino[1,2-a][1,5]-benzodiazepin-6(7H)-one]
- EC50 [1, 3]: 0.05 µM
- Emax [1, 4]: > 120%
- EC50 [2, 5]: 0.2 µM
- Emax [2, 6]: 50%

SMILES: O=C1CC2CNCCN2c2cc(COc3cccc(F)c3)ccc2N1 (centres unmarked) [Example 114, 10-[(3-fluorophenoxy)methyl]-1,2,3,4,4a,5-hexahydropyrazino[1,2-a][1,5]benzodiazepin-6(7H)-one]
- EC50 [1, 3]: 0.05 µM
- Emax [1, 4]: > 120%
- EC50 [2, 5]: 0.4 µM
- Emax [2, 6]: 30%

SMILES: O=C1CC2CNCCN2c2cc(COc3ccc(F)cc3)ccc2N1 (centres unmarked) [Example 115, 10-[(4-fluorophenoxy)methyl]-1,2,3,4,4a,5-hexahydropyrazino[1,2-a][1,5]benzodiazepin-6(7H)-one]
- EC50 [1, 3]: 0.2 µM
- Emax [1, 4]: > 120%
- EC50 [2, 5]: > 10 µM

SMILES: O=C1C[C@H]2CNCCN2c2cc(-c3ccccc3F)ccc2N1 [Example 116, (4aS)-10-(2-fluorophenyl)-1,2,3,4,4a,5-hexahydropyrazino[1,2-a][1,5]benzodiazepin-6(7H)-one]
- EC50 [1, 3]: 0.008 µM
- Emax [1, 4]: > 120%
- EC50 [2, 5]: 0.05 µM
- Emax [2, 6]: 30%

SMILES: CC(C)Oc1cccc(-c2ccc3c(c2)N2CCNC[C@@H]2CC(=O)N3)c1 [Example 117, (4aS)-10-(3-isopropoxyphenyl)-1,2,3,4,4a,5-hexahydropyrazino[1,2-a][1,5]benzodiazepin-6(7H)-one]
- EC50 [1, 3]: 0.001 µM
- Emax [1, 4]: > 120%
- EC50 [2, 5]: > 10 µM

SMILES: O=C1C[C@H]2CNCCN2c2cc(OCCc3ccccc3F)ccc2N1 [Example 118, (4aS)-10-[2-(2-fluorophenyl)ethoxy]-1,2,3,4,4a,5-hexahydropyrazino[1,2-a][1,5]benzodiazepin-6(7H)-one]
- EC50 [1, 3]: 0.009 µM
- Emax [1, 4]: > 120%
- EC50 [2, 5]: > 10 µM

SMILES: O=C1C[C@H]2CNCCN2c2cc(OC(F)F)ccc2N1 [Example 131, (4aS)-10-(difluoromethoxy)-1,2,3,4,4a,5-hexahydropyrazino[1,2-a][1,5]benzodiazepin-6(7H)-one]
- EC50 [1, 3]: 0.04 µM
- Emax [1, 4]: 110%
- EC50 [2, 5]: 0.08 µM
- Emax [2, 6]: 20%

SMILES: CN1CCN2c3ccccc3OCC[C@H]2C1 [Example 132, (4aS)-3-methyl-2,3,4,4a,5,6-hexahydro-1H-pyrazino[2,1-d][1,5]benzoxazepine]
- EC50 [1]: 0.007 µM
- Emax [1, 7]: > 120%
- EC50 [2]: > 10 µM

SMILES: Cc1ccc2c(c1)OCC[C@H]1CNCCN21 [Example 133, (4aS)-9-methyl-2,3,4,4a,5,6-hexahydro-1H-pyrazino[2,1-d][1,5]benzoxazepine]
- EC50 [1]: 0.01 µM
- Emax [1, 7]: 100%
- EC50 [2]: > 10 µM

SMILES: COc1ccc2c(c1)OCC[C@H]1CNCCN21 [Example 134, (4aS)-9-methoxy-2,3,4,4a,5,6-hexahydro-1H-pyrazino[2,1-d][1,5]benzoxazepine]
- Emax (%), 5-HT2c Agonist Activity ([1]; CHO-K1 cells, percentage relative to the effect of serotonin): 100%
- EC50 ([1]; read-out: EC50 (μM), 5-HT2c Agonist Activity, CHO-K1 cells over-expressing 5HT2C, calcium flux): 0.05 µM
- EC50 ([2]; read-out: EC50 (μM), 5-HT2B Agonist Activity, CHO-K1 cells over-expressing 5HT2B, calcium flux): > 10 µM

SMILES: Nc1ccc2c(c1)OCC[C@H]1CNCCN21 [Example 135, (4aS)-2,3,4,4a,5,6-hexahydro-1H-pyrazino[2,1-d][1,5]benzoxazepin-9-amine]
- Emax [1, 7]: 80%
- EC50 [1, 3]: 1 µM
- EC50 [2, 5]: > 10 µM

SMILES: Fc1ccc2c(c1)OCC[C@H]1CNCCN21 [Example 136, (4aS)-9-fluoro-2,3,4,4a,5,6-hexahydro-1H-pyrazino[2,1-d][1,5]benzoxazepine]
- EC50 [1]: 0.002 µM
- Emax [1, 7]: > 120%
- EC50 [2]: 0.1 µM
- Emax [2, 8]: 20%

SMILES: Cc1ccc2c(c1)N1CCNC[C@@H]1CCO2 [Example 137, (4aS)-10-methyl-2,3,4,4a,5,6-hexahydro-1H-pyrazino[2,1-d][1,5]benzoxazepine]
- EC50 [1]: 0.002 µM
- Emax [1, 7]: > 120%
- EC50 [2]: 0.05 µM
- Emax [2, 8]: 60%

SMILES: Clc1cccc2c1OCC[C@H]1CNCCN21 [Example 138, (4aS)-8-chloro-2,3,4,4a,5,6-hexahydro-1H-pyrazino[2,1-d][1,5]benzoxazepine]
- EC50 [1]: 0.0007 µM
- Emax [1, 7]: > 120%
- EC50 [2]: > 10 µM

SMILES: Fc1cccc2c1OCC[C@H]1CNCCN21 [Example 139, (4aS)-8-fluoro-2,3,4,4a,5,6-hexahydro-1H-pyrazino[2,1-d][1,5]benzoxazepine]
- EC50 [1]: 0.0004 µM
- Emax [1, 7]: > 120%
- EC50 [2]: 0.06 µM
- Emax [2, 8]: 20%

SMILES: Clc1ccc2c(c1)N1CCNC[C@@H]1CCO2 [Example 140, (4aS)-10-chloro-2,3,4,4a,5,6-hexahydro-1H-pyrazino[2,1-d][1,5]-benzoxazepine]
- EC50 [1]: 0.0005 µM
- Emax [1, 7]: > 120%
- EC50 [2]: 0.03 µM
- Emax [2, 8]: 60%

SMILES: O=C1CC2CNCCN2c2cc(/C=C/c3ccccc3C(F)(F)F)ccc2N1 (centres unmarked) [Example 142, 10-{(E)-2-[2-(trifluoromethyl)phenyl]vinyl}-1,2,3,4,4a,5-hexahydropyrazino[1,2-a][1,5]benzodiazepin-6(7H)-one]
- EC50 [1, 3]: 0.08 µM
- Emax [1, 4]: > 120%
- EC50 [2, 5]: > 10 µM

SMILES: O=C1CC2CNCCN2c2cc(/C=C/c3cc(F)cc(F)c3)ccc2N1 (centres unmarked) [Example 143, 10-[(E)-2-(3,5-difluorophenyl)vinyl]-1,2,3,4,4a,5-hexahydropyrazino[1,2-a][1,5]benzodiazepin-6(7H)-one]
- EC50 [1, 3]: 0.02 µM
- Emax [1, 4]: > 120%
- EC50 [2, 5]: 1 µM
- Emax [2, 6]: 60%

SMILES: O=C1CC2CNCCN2c2cc(CCc3ccccc3F)ccc2N1 (centres unmarked) [Example 144, 10-[2-(2-fluorophenyl)ethyl]-1,2,3,4,4a,5-hexahydropyrazino[1,2-a][1,5]benzodiazepin-6(7H)-one]
- EC50 [1, 3]: 0.002 µM
- Emax [1, 4]: > 120%
- EC50 [2, 5]: > 10 µM
- Emax [2, 6]: 50%

SMILES: O=C1CC2CNCCN2c2cc(CCc3cccc(F)c3)ccc2N1 (centres unmarked) [Example 145, 10-[2-(3-fluorophenyl)ethyl]-1,2,3,4,4a,5-hexahydropyrazino[1,2-a][1,5]benzodiazepin-6(7H)-one]
- EC50 [1, 3]: 0.006 µM
- Emax [1, 4]: > 120%
- EC50 [2, 5]: > 10 µM

SMILES: O=C1CC2CNCCN2c2cc(CCc3ccccc3C(F)(F)F)ccc2N1 (centres unmarked) [Example 146, 10-{2-[2-(trifluoromethyl)phenyl]ethyl}-1,2,3,4,4a,5-hexahydropyrazino[1,2-a][1,5]benzodiazepin-6(7H)-one]
- EC50 [1, 3]: 0.005 µM
- Emax [1, 4]: > 120%
- EC50 [2, 5]: > 10 µM

SMILES: O=C1CC2CNCCN2c2cc(CCc3cc(F)cc(F)c3)ccc2N1 (centres unmarked) [Example 147, 10-[2-(3,5-difluorophenyl)ethyl]-1,2,3,4,4a,5-hexahydropyrazino[1,2-a][1,5]benzodiazepin-6(7H)-one]
- EC50 [1, 3]: 0.01 µM
- Emax [1, 4]: > 120%
- EC50 [2, 5]: > 10 µM

SMILES: O=C1C[C@H]2CNCCN2c2cccc(Cl)c2N1 [Example 148, (4aS)-8-chloro-1,2,3,4,4a,5-hexahydropyrazino[1,2-a][1,5]benzodiazepin-6(7H)-one]
- EC50 [1]: 0.007 µM
- Emax [1, 7]: > 120%
- EC50 [2]: > 10 µM

SMILES: O=C1CC2CNCCN2c2cc(OCc3ccccc3)ccc2N1 (centres unmarked) [Example 149, 10-(benzyloxy)-1,2,3,4,4a,5-hexahydropyrazino[1,2-a][1,5]benzodiazepin-6(7H)-one]
- EC50 [1, 3]: 0.02 µM
- Emax [1, 4]: > 120%
- EC50 [2, 5]: 1 µM
- Emax [2, 6]: 30%

SMILES: O=C1CC2CNCCN2c2ncccc2N1 (centres unmarked) [Example 150, 7,7a,8,9,10,11-hexahydropyrazino[1,2-d]pyrido[3,2-b][1,4]diazepin-6(5H)-one]
- Emax [1, 7]: > 120%
- EC50 [1, 3]: 0.2 µM
- EC50 [2, 5]: > 10 µM
